Patent publication US7049321B2, “Methods and pharmaceutical compositions for treatment of central and peripheral nervous system disorders and compounds useful therefor” (Israel Institute for Biological Research, priority 2002, dated 2006)

What was measured:
[1] = test system: C57BL/10SnJ (B10) mice; experiment: Morris water maze in small hippocampus mice; format: in vivo; settings: for Training, escape latency: 0.5 and 1 mg/kg i.p. (rivastigmine, nicotine 1 mg/kg); for Training, path length: AF150(S) both doses, AF267B the higher dose; for Reversal test, escape latency / Training, swimming speed / Transfer test, spatial bias: mouse, in vivo
Method: C57BL/10SnJ (B10) mice were selected due to their small hippocampi and decreased number of hippocampal pyramidal neurons; the cell loss seemed to be associated with poor spatial learning.
Each group of mice was randomly divided into 7 treatment groups (n=12-14/group). […] All tested compounds and saline were administered once a day for 4 days before starting the behavioral testing, and then for the duration of the 5-day experiment, 30 minutes before testing.
Training: Each mouse was trained for four consecutive days, four trials (one block) per day, in which the platform position remained constant and was located in the center of the southeast quadrant of the pool. Within each block of four trials, each mouse started at each of the starting locations, but the sequence of locations was randomly selected. A trial consisted of placing a mouse by hand into the water facing the wall of the pool at one of four starting locations, north, south, east or west, around the pool's perimeter. Escape latency (the time to find the platform), path length (the distance traveled by the mouse) and speed (the swimming rate of the mouse) were recorded on each trial by the monitoring system.
For each mouse, the path length, escape latency, and swimming speed of the four trials on each of the 4 training days were grouped into blocks (one block for each day). […] Specific comparisons were performed, using the simple main effects contrasts acalysis, which is specifically suited for testing significant interactions.
Transfer test. During trial No. 17, on the fourth day, the platform was entirely removed from the pool (a probe trial). In this trial, the mouse was placed into the water for a limited period (30 s), and its spatial bias was measured by recording the relative distribution of escape latency and path length over the four quadrants of the pool.
Reversal test. During trials 18–21, on the fifth day, the platform position was changed to the northwest quadrant, opposite to the training quadrant. Thus, during reversal learning, the platform location was moved relative to the configuration of objects within the room, but the pool occupied the same place within the room throughout the entire experiment. Testing of the rats and measures taken were the same as in training.
For each mouse, the escape latency, path length and swimming speed of the reversal test (trials No. 18–21) were grouped into one block.

[2] = test system: cortical and hippocampal cell culture; experiment: Protection against NMDA-induced cell death; format: cell-based, rat; settings: for Neuroprotective potency against 200 μM of NMDA vs MK801: 100 μM agonist
[3] = Plasma levels of AF267B and AF292 in dogs after AF267B administration (toxicokinetic, LC-MS); format: in vivo, Beagle dogs; settings: for AUC(0-t) / Cmax / Tmax / half-life / AUC(0-inf) / MRT / MRT at 13 weeks: beagle, plasma, po
Source text: Internal Standard (AF261): 2-Methyl-8-methyl-1-thia-4,8-diaza-spiro[4.5]decan-3-one; MW 200. The analytical plasma samples originate from the in-life part of this study.

[4] = Chronic oral toxicity up to 13 weeks, dog
[5] = test system: GSK-3β; experiment: GSK-3β activity in rat hippocampal neurons; format: cell-based
Method: (§1) This study was performed in rat hippocampal primary cell cultures using the methods described by Garrido J L et al. (FASEB J 2002; 16:1982).

[6] = test system: rat hippocampal neurons; experiment: Survival, morphology and apoptosis of hippocampal neurons exposed to Aβ; format: cell-based
Method: as §1

[7] = target: T1, M1 mAChR (Homo sapiens, UniProt P11229); experiment: Arachidonic acid (AA) release, M1; format: cell-based
T1 construct: expressed in transfected cells
T1 sequence (P11229 whole entry): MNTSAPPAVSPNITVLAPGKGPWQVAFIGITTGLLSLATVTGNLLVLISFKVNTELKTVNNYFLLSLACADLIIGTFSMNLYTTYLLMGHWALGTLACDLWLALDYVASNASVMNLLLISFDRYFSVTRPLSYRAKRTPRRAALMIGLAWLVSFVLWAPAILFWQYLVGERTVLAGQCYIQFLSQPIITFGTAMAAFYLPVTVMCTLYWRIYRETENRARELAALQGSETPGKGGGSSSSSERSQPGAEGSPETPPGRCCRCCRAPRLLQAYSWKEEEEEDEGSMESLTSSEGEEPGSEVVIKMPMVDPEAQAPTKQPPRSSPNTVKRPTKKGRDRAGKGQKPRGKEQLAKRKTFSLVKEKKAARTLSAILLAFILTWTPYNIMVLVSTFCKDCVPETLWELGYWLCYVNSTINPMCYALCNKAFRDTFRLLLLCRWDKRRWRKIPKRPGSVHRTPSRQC

[8] = Metabolic stability, dog liver microsomes; format: in vitro ADME; settings: read-out: Metabolic Stability T1/2
Method: The metabolic stability of AF292 was evaluated by monitoring its disappearance while incubated with rat, […], monkey, and human hepatic microsomes. Testosterone, and propranolol were run as assay controls.

[9] = target: mAChR receptors, Rat Cortical (CTX) Membranes; format: binding; settings: read-out: Ki, QNB
[10] = Protein binding, PBS; format: in vitro ADME; settings: 10 μM
Method: Protein binding studies were carried out in human plasma, α1-glycoprotein, human serum albumin (HSA), and Dulbecco's Phosphate Buffered Saline (PBS). AF292 was added to a final concentration of 10 μM. […] (μM) and in human […] (AGP), (see Table 1).

[11] = target: hERG-encoded channel (Homo sapiens, UniProt Q12809); experiment: Astemizole (HERG channel) binding assay
Chain of hERG-encoded channel (Q12809 whole entry): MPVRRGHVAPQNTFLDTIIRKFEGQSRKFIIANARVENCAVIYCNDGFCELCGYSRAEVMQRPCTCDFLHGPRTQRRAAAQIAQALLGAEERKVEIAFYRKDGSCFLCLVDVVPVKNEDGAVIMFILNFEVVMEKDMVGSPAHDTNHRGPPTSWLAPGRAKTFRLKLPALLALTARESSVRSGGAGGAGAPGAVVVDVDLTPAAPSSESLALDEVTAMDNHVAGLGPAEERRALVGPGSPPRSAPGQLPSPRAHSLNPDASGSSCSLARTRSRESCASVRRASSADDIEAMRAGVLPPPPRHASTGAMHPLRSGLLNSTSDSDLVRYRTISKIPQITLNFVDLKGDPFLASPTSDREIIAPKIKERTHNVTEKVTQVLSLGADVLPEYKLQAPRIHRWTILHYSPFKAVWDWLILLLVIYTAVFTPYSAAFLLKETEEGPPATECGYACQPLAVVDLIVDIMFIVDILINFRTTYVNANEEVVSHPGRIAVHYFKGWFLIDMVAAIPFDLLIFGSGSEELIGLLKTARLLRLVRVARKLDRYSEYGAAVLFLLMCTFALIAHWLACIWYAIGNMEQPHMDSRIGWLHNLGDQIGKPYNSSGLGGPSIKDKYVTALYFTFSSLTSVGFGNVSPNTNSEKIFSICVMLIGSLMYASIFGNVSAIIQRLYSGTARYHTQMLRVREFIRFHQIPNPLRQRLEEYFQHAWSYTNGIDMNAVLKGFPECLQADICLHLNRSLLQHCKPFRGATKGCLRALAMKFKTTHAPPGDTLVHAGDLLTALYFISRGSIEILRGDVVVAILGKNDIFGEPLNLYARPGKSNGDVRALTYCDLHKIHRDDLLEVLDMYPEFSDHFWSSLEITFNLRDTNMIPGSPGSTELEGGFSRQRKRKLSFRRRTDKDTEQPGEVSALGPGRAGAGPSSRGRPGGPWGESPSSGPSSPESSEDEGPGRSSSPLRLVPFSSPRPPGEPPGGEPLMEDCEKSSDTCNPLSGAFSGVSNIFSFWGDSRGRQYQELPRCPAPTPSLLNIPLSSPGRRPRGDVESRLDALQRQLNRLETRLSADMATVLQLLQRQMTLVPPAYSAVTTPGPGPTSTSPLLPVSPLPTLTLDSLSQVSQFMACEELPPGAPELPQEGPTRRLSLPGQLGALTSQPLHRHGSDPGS
Method: • 1. Astemizole (human ether-a-go-go related gene (HERG) Channel) Binding Assay. […] Isolated Guinea Pig Right Atrium (atrial fibrillation). […] Effects of AF292 (dose 5 mg/kg orally) on cardiac electrophysiological, cardio-haemodynamic in instrumented, awake dogs. Healthy trained and chronically instrumented female Beagle dogs of varying age and ranging in body weight from 9.4 to 12 kg, were used for recording of the cardiovascular parameters: heart rate, diastolic and systolic blood pressure, pressure rate product, LV dp/dt max, LV dp/dt max/pd, LV dp/dt min, cardiac output, stroke volume, systemic vascular resistance and the ECG parameters (PQ-, QRS-, QT-, QTcBazett-(QTcB), QTcFridericia-(QTcF) and QTcVan de Water-(QTcVdW) interval duration and QT-dispersion. During the last 18 hours prior to the experiments, the dogs had no access to food. Water was available ad libitum. At the beginning of each experiment, control values of the various parameters were recorded for at least 30 min. Thereafter, 5 mg/kg of AF292 (n=4) or the corresponding volume of the solvent (n=4) was administered orally by gavage. The various haemodynamic parameters were recorded continuously for 4 hours thereafter.

[12] = target: CYP3A4 (Homo sapiens, UniProt P08684); experiment: Cytochrome P450 inhibition, CYP3A4; format: in vitro ADME; settings: up to 10 μM
Chain of CYP3A4 (P08684 whole entry): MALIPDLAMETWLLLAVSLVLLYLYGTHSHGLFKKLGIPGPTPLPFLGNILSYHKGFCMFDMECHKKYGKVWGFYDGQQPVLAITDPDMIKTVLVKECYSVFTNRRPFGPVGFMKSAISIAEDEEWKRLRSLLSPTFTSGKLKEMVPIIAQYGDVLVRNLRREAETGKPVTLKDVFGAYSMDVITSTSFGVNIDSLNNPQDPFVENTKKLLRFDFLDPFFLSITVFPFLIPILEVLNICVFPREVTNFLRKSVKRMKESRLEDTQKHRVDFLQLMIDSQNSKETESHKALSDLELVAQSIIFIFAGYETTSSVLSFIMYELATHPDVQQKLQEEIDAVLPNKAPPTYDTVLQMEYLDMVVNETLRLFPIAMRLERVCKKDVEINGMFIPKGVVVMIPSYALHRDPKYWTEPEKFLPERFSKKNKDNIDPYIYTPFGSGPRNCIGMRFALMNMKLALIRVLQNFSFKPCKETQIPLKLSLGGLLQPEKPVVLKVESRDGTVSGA
Method: Cytochrome P450 activity can be an indicator for potential drug-drug interactions. AF292 was evaluated in a microtiter plate assay for P450 inhibition.

[13] = test system: adenosine, adrenergic, angiotensin, BZD, bradykinin, CCK, dopamine, opiate, serotonin and other receptors, ion channels, NE transporter; experiment: Binding panel of other receptors, channels and transporter (AF292); settings: 10 μm
[14] = target: M3 (human) (Homo sapiens, UniProt P20309); experiment: Binding study, M3 (human); settings: 10 μm
Chain of M3 (human) (P20309 whole entry): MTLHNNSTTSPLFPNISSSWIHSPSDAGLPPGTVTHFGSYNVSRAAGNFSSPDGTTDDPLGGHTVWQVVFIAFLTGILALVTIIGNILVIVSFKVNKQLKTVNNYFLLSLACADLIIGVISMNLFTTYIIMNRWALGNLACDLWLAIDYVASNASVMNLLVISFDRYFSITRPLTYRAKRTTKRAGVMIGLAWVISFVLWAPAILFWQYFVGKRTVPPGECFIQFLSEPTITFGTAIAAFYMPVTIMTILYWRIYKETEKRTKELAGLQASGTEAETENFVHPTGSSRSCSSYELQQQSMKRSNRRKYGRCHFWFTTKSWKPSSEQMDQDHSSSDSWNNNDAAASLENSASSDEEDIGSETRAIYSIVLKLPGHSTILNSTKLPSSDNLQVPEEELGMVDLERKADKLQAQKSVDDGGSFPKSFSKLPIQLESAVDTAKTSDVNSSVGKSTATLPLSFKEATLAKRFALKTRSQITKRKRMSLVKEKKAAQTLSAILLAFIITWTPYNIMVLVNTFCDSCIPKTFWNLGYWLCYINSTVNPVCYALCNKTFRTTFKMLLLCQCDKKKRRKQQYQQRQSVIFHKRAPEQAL

[15] = both sexes, dog, 6 mg/kg, read-out: plasma half life
[16] = female, dog, 6 mg/kg, F (1x), AF267B 1.5, 3, 6 mg/kg p.o. single
[17] = female, dog, 6 mg/kg, F(13w), AF267B 1.5, 3, 6 mg/kg p.o.
[18] = male, dog, 6 mg/kg, M (1x), AF267B 1.5, 3, 6 mg/kg p.o. single
[19] = male, dog, 6 mg/kg, M(13w), AF267B 1.5, 3, 6 mg/kg p.o.
[20] = male, dog, read-out: Elimination half life, Mean T1/2

Row | SMILES | Training, escape latency [1] | Training, path length [1] | Reversal test, escape latency [1] | Training, swimming speed [1] | Transfer test, spatial bias [1] | Prevention of NMDA-induced cell death [2] | Neuroprotective potency against 200 μM of NMDA vs MK801 [2] | AUC(0-t) ([3]; both sexes, dog) | Cmax ([3]; both sexes, dog) | Tmax ([3]; both sexes, dog) | half-life [3, 15] | AUC(0-inf) [3, 16] | AUC(0-inf) [3, 17] | MRT ([3]; female, dog, F (1x)) | MRT at 13 weeks ([3]; female, dog, F(13w)) | AUC(0-inf) [3, 18] | AUC(0-inf) [3, 19] | MRT ([3]; male, dog, M (1x)) | MRT at 13 weeks ([3]; male, dog, M(13w)) | half-life [3, 20] | also measured
1 | CC1=NCC2(CCN(C)CC2)S1 [AF150(S), 2,8-Dimethyl-1-thia-3,8-diaza-spiro[4.5]dec-2-ene] | positively affected | positively affected | improved the escape latency | enhancing effect of AF150(S) was equal in both doses | complete spatial bias | effective in prevention of cell death | slightly less |  |  |  |  |  |  |  |  |  |  |  |  |  | 
2 | CC[C@@H]1SC2(CCN(C)CC2)NC1=O [AF267B, (S)-2-ethyl-8-methyl-1-thia-4,8-diaza-spiro[4.5]decan-3-one] | positively affected | positively affected | improved the escape latency | enhanced the swimming speed in a dose dependent manner | complete spatial bias | effective in prevention of cell death | slightly less | 712 to 3950 ng·h/mL | 162 to 1350 ng/mL | 1.5 to 3 h | 1 to 2 h | 985 to 3180 ng·h/mL | 1030 to 4160 ng·h/mL | 4.7 to 5.3 h | 3.6 to 5.2 h | 800 to 3690 ng·h/mL | 1040 to 4470 ng·h/mL | 3.8 to 5 h | 3 to 4.2 h | 2.1 h | half-life ([3]; female, dog, read-out: Elimination half life, Mean T1/2): 3.3 h; NOAEL ([4]; beagle, dog, in vivo, po): 6 to 9 mg/kg/day; Dose at which effects are seen ([4]; dog): > 9 mg/kg; ECG changes ([4]; up to 13 weeks oral): no changes in the ECG; GSK-3β activity vs. control in presence of Aβ fibrils ([5]; 10 μM, Aβ fibrils (10 μM) alone 370%): 150%; Decrease of GSK-3β activity ([5]; 100 μm): 60%; Protection of hippocampal neurons from Aβ1–40 ([6]; 10 μM, Aβ1–40 (5 μM)): > 90%; Aβ1–40-induced apotosis ([6]; 10 μM, Aβ1–40 (5 μm)): to the control level; Survival and morphology of hippocampal neurons, compound alone ([6]; 0.5–50 μM): does not affect the survival and morphology; Neurites after Aβ1–40 (immunofluorescence) ([6]; Aβ1–40 (5 μM)): protected the neurons; AA release vs. CCh, M1 mAChR [7]: 100%; half-life [8]: > 1.67 h; Ki [9]: 49.6 ± 9 µM; Protein Binding [10]: PBS = 0%
3 | CC[C@@H]1SC2(CCNCC2)NC1=O [AF292, (S)-2-Ethyl-1-thia-4,8-diaza-spiro[4.5]decan-3-one] |  |  |  |  |  |  |  | 616 to 2450 ng·h/mL | 136 to 555 ng/mL | 3 h | 9 to 20 h | 3900 to 4840 ng·h/mL | 1870 to 12700 ng·h/mL | 8.7 to 18.7 h | 5.1 to 33.7 h | 1140 to 10900 ng·h/mL | 1610 to 4170 ng·h/mL | 5 to 27.3 h | 5 to 7.8 h | 6.3 h | Elimination half life, Mean T1/2 ([3]; F): Mean T1/2 (F) = 10.6 +/− 7.6 h; Cmax vs. the Cmax of AF267B ([3]; dog, in vivo): 50–90%; half-life ([3]; female, dog, females, read-out: T1/2 (converted)): 10.6 h; [3H]-Astemizole binding inhibition [11]: inactive; Inhibition of CYP3A4 [12]: did not induce significant inhibition; Binding to panel [13]: no binding at all; AA release vs. CCh, M1 mAChR [7]: > 88%; Binding, % [14]: 55%; half-life [8]: > 1.67 h; Protein Binding [10]: 0% and PBS = 0%
